Test results as given in patent publication US20260207570A1, “OPTIMIZED DOSING OF LERIGLITAZONE” (MINORYX THERAPEUTICS S.L., priority 2022, published 2026).
Read-outs that look alike come from different tables or passages of the source.

Columns and labels:
[1] = Phase 1 single ascending dose (SAD) pharmacokinetics in healthy volunteers; type: in vivo, human; conditions: male, human, oral; for Tmax / AUC / Cmax: 270 mg; for AUC: read-out: AUC, Observed; for Cmax: read-out: Cmax, Observed
Protocol: (§1) Study design: A phase 1, randomized, double blind, placebo-controlled, single-center clinical study in 33 male healthy volunteers (HV) (19-54 years, 63.2-95.7 Kg) was conducted with leriglitazone HCl and divided in two parts: a single ascending dose (SAD) with three dose levels (30, 90 and 270 mg) in fasted conditions, followed with two dose levels (90 and 270 mg) in fed conditions; a multiple ascending dose (MAD) with a double-blind, parallel-design with two dose levels (135 and 270 mg) for 8 days and a separate cohort of subjects in an open-label parallel design with two dose levels (135 and 270 mg) including cerebrospinal fluid (CSF) collection on day 8. In the fasted conditions a fasting period of at least 4 hours was required before obtaining plasma samples. The food effect (FE) was assessed by comparing fasted with fed conditions (dosing after a high-fat breakfast per FDA definition with a calculated caloric content of 918 kcal). In the MAD part (fed) the medication was taken before a normal breakfast. Leriglitazone HCl was supplied by ChemConnection and an oral suspension of leriglitazone (20% w/v kleptose, 2% ethanol in 100 mM phosphate buffer pH=7.8) at 6 mg/ml was used in the study.
(§2) Blood, Urine and CSF sampling: In the SAD, blood samples were drawn at the following time points: pre-dose and 0.25, 0.5, 0.75, 1, 1.5, 2, 2.5, 3, 4, 5, 6, 8, 10, 12, 16, 24, 36, 48, 72, 96 and 120 hours post-dose. Urine was collected at pre-dose (within 12 hours prior to dosing) and over 0-6, 6-12, 12-24, 24-36, 36-48 hours post-dose collection intervals. In the MAD, blood samples were collected on day 1 at pre-dose and 0.25, 0.5, 0.75, 1, 1.5, 2, 2.5, 3, 4, 5, 6, 8, 10, 12, and 16 hours post-dose and at pre-dose and at 4 hours post-dose on day 2 to day 7, and on day 8 at pre-dose and 0.25, 0.5, 0.75, 1, 1.5, 2, 2.5, 3, 4, 5, 6, 8, 10, 12, 16, 24, 36, 48, 72, 96 and 120 hours post-dose. CSF were taken on day −1 and on day 8, at 4 hours post-dose.
(§3) Pharmacokinetic parameter calculation: PK parameters (Cmax, Tmax, t1/2, AUC0-t, CL/F, Vz/F, AUC0-t, RAUC, RCmax) were estimated using non-compartmental analysis (NCA) (Phoenix WinNonlin® Version 6.3).
(§4) Statistical analysis: Descriptive statistics for all relevant PK parameters: n, mean, minimum, median, maximum, geometric mean, and coefficient of variation (CV %); analysis of variance on Cmax and AUC to determine dose proportionality and food effect (FE).

[2] = Phase 1 multiple ascending dose (MAD) pharmacokinetics with CSF collection in healthy volunteers; type: in vivo, human; conditions: for CSF C4h / concentration at 4 h: total; for accumulation RCmax: day 8 vs day 1; for Vd/F: read-out: Vz/F
Protocol: as §1, §2, §3, §4
The ratio of unbound leriglitazone concentration in brain to unbound concentration in plasma (Kpu,u; Cb,u/Cp,u) was calculated dividing the unbound CSF Cmax by the unbound plasma Cmax. Fractions unbound in plasma (fu,p) to obtain the unbound Cmax values were already reported. Rodriguez-Pascau, L. et al., Sci. Transl. Med. 13, eabc0555 (2021).

[3] = plasma, single dose 270 mg Fasted

CC(O)c1ccc(CCOc2ccc(CC3SC(=O)NC3=O)cc2)nc1 (centres unmarked) [Leriglitazone, 5-[[4-[2-[5-(1-hydroxyethyl)pyridin-2-yl]ethoxy]phenyl]methyl]-1,3-thiazolidine-2,4-dione]
Tmax ([1]; plasma, SAD fed conditions, 90 and 270 mg, read-out: Tmax): 3 to 6 h
AUC [1, 3]: 369 µg·h/mL
Cmax [1, 3]: 13400 ng/mL
Tmax ([1]; plasma, single dose 270 mg Fasted, read-out: Tmax, Observed): 1.5 h
AUC ([1]; plasma, single dose 270 mg Fed): 368 µg·h/mL
Cmax ([1]; plasma, single dose 270 mg Fed): 11500 ng/mL
Tmax ([1]; plasma, single dose 270 mg Fed, read-out: Tmax, Observed): 4 h
Vd ([1]; plasma, PBPK model input, estimated from phase 1 SAD data, read-out: Vss): 0.29 L/kg
half-life ([1]; plasma, SAD, read-out: Half-lives): 23 to 24 h
CL renal ([1]; urine, PBPK model input): 0.55 mL/min
CL/F ([2]; 135 mg MD Day 1, n = 8, geometric mean (CV %)): 1.59 (17.8) L./h
CSF C4h ([2]; 135 mg MD Day 8, 4 hours post-dose, geometric mean (CV %)): 188 (15.9) ng/mL
CL/F ([2]; 270 mg MD Day 1, n = 8, geometric mean (CV %)): 1.63 (14.4) L./h
CSF C4h ([2]; 270 mg MD Day 8, 4 hours post-dose, geometric mean (CV %)): 332 (13.4) ng/mL
increase of CSF concentration on doubling the dose ([2]; 270 mg vs 135 mg, day 8, 4 hours post-dose): 1.8 fold
accumulation RCmax ([2]; MAD 135 mg): 1.7
accumulation RAUC ([2]; MAD 270 mg dose): 1.81
accumulation RCmax ([2]; MAD 270 mg): 1.7
time to steady state ([2]; MAD 135 or 270 mg daily, fed): 5 days
CSF Cmax ([2]; human, 135 mg): 188 ng/mL
CSF Cmax ([2]; human, 270 mg): 332 ng/mL
brain penetration ([2]; judged from CSF to plasma concentrations): good
Kp at 4 h ([2]; male, CSF and plasma (unbound), oral, human, 135 mg, unbound CSF Cmax / unbound plasma Cmax, read-out: Kpu, u based on CSF): 0.55
Kp ([2]; male, CSF and plasma (unbound), oral, human, 270 mg, unbound CSF Cmax / unbound plasma Cmax, read-out: Kpu, u based on CSF): 0.54
Kp at 4 h ([2]; male, human, CSF and plasma, oral, 135 mg MD Day 8, geometric mean (CV %), read-out: CSF/Plasma): 0.021
Kp at 4 h ([2]; male, human, CSF and plasma, oral, 270 mg MD Day 8, geometric mean (CV %), read-out: CSF/Plasma): 0.024
Kp at 4 h ([2]; male, human, CSF and plasma, oral, day 8, 4 hours post-dose, read-out: total concentrations in CSF as share of total plasma concentrations): 0.022 to 0.025
concentration at 4 h ([2]; male, human, CSF, oral, 135 mg MD Day 8, 4 hours post-dose, geometric mean (CV %), read-out: CSF C4h): 188 ng/mL
concentration at 4 h ([2]; male, human, CSF, oral, 270 mg MD Day 8, 4 hours post-dose, geometric mean (CV %), read-out: CSF C4h): 332 ng/mL
Tmax ([2]; male, human, plasma, oral, 135 mg, 135 mg MD Day 1, n = 8, Median, read-out: Tmax): 3 h
Vd/F ([2]; male, human, plasma, oral, 135 mg, 135 mg MD Day 1, n = 8, geometric mean (CV %)): 47.1 L
Cmax ([2]; male, human, plasma, oral, 135 mg, 135 mg MD Day 1, n = 8, plasma total, geometric mean, read-out: Cmax): 5430 ng/mL
Tmax ([2]; male, human, plasma, oral, 135 mg, 135 mg MD Day 8, n = 8, Median, read-out: Tmax): 4 h
Vd/F ([2]; male, human, plasma, oral, 135 mg, 135 mg MD Day 8, n = 8, geometric mean (CV %)): 27.7 L
Cmax ([2]; male, human, plasma, oral, 135 mg, 135 mg MD Day 8, n = 8, plasma total, geometric mean, read-out: Cmax): 9500 ng/mL
AUC ([2]; male, human, plasma, oral, 135 mg, 135 mg daily, fed, Day 1, read-out: AUC, Observed): 85.1 µg·h/mL
Cmax ([2]; male, human, plasma, oral, 135 mg, 135 mg daily, fed, Day 1, read-out: Cmax, Observed): 5490 ng/mL
Tmax ([2]; male, human, plasma, oral, 135 mg, 135 mg daily, fed, Day 1, read-out: Tmax, Observed): 3 h
AUC ([2]; male, human, plasma, oral, 135 mg, 135 mg daily, fed, Day 8, read-out: AUC, Observed): 145 µg·h/mL
Cmax ([2]; male, human, plasma, oral, 135 mg, 135 mg daily, fed, Day 8, read-out: Cmax, Observed): 9490 ng/mL
Tmax ([2]; male, human, plasma, oral, 135 mg, 135 mg daily, fed, Day 8, read-out: Tmax, Observed): 4 h
AUC ([2]; male, human, plasma, oral, 135 mg, human, 135 mg, read-out: Total plasma AUC): 145 µg·h/mL
Cmax ([2]; male, human, plasma, oral, 135 mg, human, 135 mg, read-out: Total plasma Cmax): 9490 ng/mL
Tmax ([2]; male, human, plasma, oral, 270 mg, 270 mg MD Day 1, n = 8, Median, read-out: Tmax): 3 h
Vd/F ([2]; male, human, plasma, oral, 270 mg, 270 mg MD Day 1, n = 8, geometric mean (CV %)): 52.7 L
Cmax ([2]; male, human, plasma, oral, 270 mg, 270 mg MD Day 1, n = 8, plasma total, geometric mean, read-out: Cmax): 10000 ng/mL
Tmax ([2]; male, human, plasma, oral, 270 mg, 270 mg MD Day 8, n = 7, Median, read-out: Tmax): 4 h
Vd/F ([2]; male, human, plasma, oral, 270 mg, 270 mg MD Day 8, n = 7, geometric mean (CV %)): 29.5 L
Cmax ([2]; male, human, plasma, oral, 270 mg, 270 mg MD Day 8, n = 7, plasma total, geometric mean, read-out: Cmax): 17000 ng/mL
AUC ([2]; male, human, plasma, oral, 270 mg, 270 mg daily, fed, Day 1, read-out: AUC, Observed): 165 µg·h/mL
Cmax ([2]; male, human, plasma, oral, 270 mg, 270 mg daily, fed, Day 1, read-out: Cmax, Observed): 10000 ng/mL
Tmax ([2]; male, human, plasma, oral, 270 mg, 270 mg daily, fed, Day 1, read-out: Tmax, Observed): 3 h
AUC ([2]; male, human, plasma, oral, 270 mg, 270 mg daily, fed, Day 8, read-out: AUC, Observed): 299 µg·h/mL
Cmax ([2]; male, human, plasma, oral, 270 mg, 270 mg daily, fed, Day 8, read-out: Cmax, Observed): 17200 ng/mL
Tmax ([2]; male, human, plasma, oral, 270 mg, 270 mg daily, fed, Day 8, read-out: Tmax, Observed): 4 h
AUC ([2]; male, human, plasma, oral, 270 mg, human, 270 mg, read-out: Total plasma AUC): 299 µg·h/mL
Cmax ([2]; male, human, plasma, oral, 270 mg, human, 270 mg, read-out: Total plasma Cmax): 17200 ng/mL
concentration at 4 h ([2]; male, human, plasma, oral, 270 mg MD Day 8, 4 hours post-dose, geometric mean (CV %), read-out: Plasma C4h): 14200 ng/mL
mean CL/F ([2]; phase 1 MAD part day 8): 0.93 L/h
